Reference: patent publication US20230183243A1, “HETEROARYL DERIVATIVES AND PHARMACEUTICAL COMPOSITION COMPRISING SAME AS ACTIVE INGREDIENT” (VORONOI INC., priority 2019, published 2023)

Legend:
MDA-MB-231 cells = assay: Inhibition of proliferation of triple-negative breast cancer cells, CellTiter-Glo; type: cell-based; conditions: Homo sapiens, 120 h; MDA-MB-231, cultured for 5 days
Method in brief: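 MDA-MB-231 cells pre-cultured 24 h (5% CO2, 37 °C), then exposed to compound for 5 days at 12 three-fold dilutions, final 10 μM to 0.05 nM. Viability read by CellTiter-Glo luminescence after 10 min at 37 °C; growth inhibition calculated relative to untreated solvent-control cells.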

SHP-77 = assay: Inhibition of proliferation of small cell lung cancer cells, CellTiter-Glo; type: cell-based; conditions: Homo sapiens, SHP77, 120 h; SHP-77, cultured for 5 days
Method in brief: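 SHP-77 cells at 2,000–3,000 cells/well, cultured 24 h at 37° C, 5% CO2, then given 12 threefold compound dilutions, final 10 μM to 0.05 nM, for 5 days. Viability by CellTiter-Glo luminescence relative to solvent control. GI50 from concentration–response.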

TTK = biological target: T1, TTK (Homo sapiens, UniProt P33981); assay: TTK enzyme activity, ADP-Glo kinase assay; type: biochemical; parameters: purchased SignalChem T20-10G; conditions: purified human TTK, ATP 10 μM, 25° C., 2 hours
T1 sequence (P33981 1-857): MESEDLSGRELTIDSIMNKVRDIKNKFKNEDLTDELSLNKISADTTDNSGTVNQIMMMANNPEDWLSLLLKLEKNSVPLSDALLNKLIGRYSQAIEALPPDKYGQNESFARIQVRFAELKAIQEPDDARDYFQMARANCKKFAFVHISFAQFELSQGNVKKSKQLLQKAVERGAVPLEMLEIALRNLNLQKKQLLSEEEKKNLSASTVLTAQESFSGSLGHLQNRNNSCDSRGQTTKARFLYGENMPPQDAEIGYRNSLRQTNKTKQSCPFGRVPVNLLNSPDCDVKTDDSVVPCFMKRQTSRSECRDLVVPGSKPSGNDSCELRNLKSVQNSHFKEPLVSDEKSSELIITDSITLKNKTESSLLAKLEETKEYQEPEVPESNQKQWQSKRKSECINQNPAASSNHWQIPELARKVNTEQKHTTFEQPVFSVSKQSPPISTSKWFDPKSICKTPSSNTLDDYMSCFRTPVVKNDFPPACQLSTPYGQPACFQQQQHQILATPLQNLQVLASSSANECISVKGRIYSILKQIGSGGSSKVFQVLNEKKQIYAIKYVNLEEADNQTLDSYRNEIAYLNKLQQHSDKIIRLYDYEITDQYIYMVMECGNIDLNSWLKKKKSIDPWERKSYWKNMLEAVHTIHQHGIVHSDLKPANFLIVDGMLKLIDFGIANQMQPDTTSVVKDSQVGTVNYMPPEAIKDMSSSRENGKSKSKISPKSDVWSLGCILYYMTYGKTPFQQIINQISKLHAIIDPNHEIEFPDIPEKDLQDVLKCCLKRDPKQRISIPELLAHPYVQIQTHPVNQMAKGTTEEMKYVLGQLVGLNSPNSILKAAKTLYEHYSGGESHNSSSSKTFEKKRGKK
Method in brief: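 ADP-Glo read-out; percent inhibition at each compound concentration was relative to the solvent-only control. The reactions contained 25 ng enzyme, 0.2 μg substrate and 10 μM ATP in 40 mM Tris-HCl pH 7.4 with 20 mM MgCl2, 0.5 mg/mL BSA and 50 μM DTT, and ran 2 h at 25 °C.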

Row | SMILES | GI50 (MDA-MB-231 cells) [µM] | GI50 (SHP-77) [µM] | IC50 (TTK) [µM]
1 | Cn1nccc1-c1ccc(Nc2nc(NC3CCCC3)c3c(Cl)c[nH]c3n2)c2c1OCCO2 [Example 128, 5-chloro-N^4-cyclopentyl-N^2-(8-(1-methyl-1H-pyrazol-5-yl)-2,3-dihydrobenzo[b][1,4]dioxin-5-yl)-7H-pyrrolo[2,3-d] pyrimidine-2,4-diamine] | 0.1 to 1 | < 0.1 | 0.05 to 0.2
2 | N#Cc1c[nH]c2nc(Nc3cccc4c3OCCO4)nc(NC3CCOCC3)c12 [Example 170, 2-((2,3-dihydrobenzo[b][1,4]dioxin-5-yl)amino)-4-((tetrahydro-2H-pyran-4-yl)amino)-7H-pyrrolo[2,3-d] pyrimidine-5-carbonitrile] | < 0.1 | < 0.1 | < 0.05
3 | COc1cc(-c2ccnn2C)ccc1Nc1nc(NC2CCCC(F)(F)C2)c2c(C#N)c[nH]c2n1 (stereo not drawn) [Example 152, 4-((3,3-difluorocyclohexyl)amino)-2-((2-methoxy-4-(1-methyl-1H-pyrazol-5-yl)phenyl)amino)-7H-pyrrolo[2,3-d] pyrimidine-5-carbonitrile] | < 0.1 | < 0.1 | 0.05 to 0.2
4 | COC[C@@H](C)Nc1nc(Nc2ccc(-c3ccnn3C)cc2OC)nc2[nH]cc(C#N)c12 [Example 168, (R)-2-((2-methoxy-4-(1-methyl-1H-pyrazol-5-yl)phenyl)amino)-4-((1-methoxypropan-2-yl)amino)-7H-pyrrolo[2,3-d] pyrimidine-5-carbonitrile] | < 0.1 | < 0.1 | < 0.05
5 | COc1cc(Nc2nc(NC3CCOCC3)c3c(C#N)c[nH]c3n2)ccc1-c1c(C)noc1C [Example 138] | < 0.1 | < 0.1 | < 0.05
6 | COCCNc1nc(Nc2ccc(-n3ccnc3C)cc2OC)nc2[nH]cc(C#N)c12 [Example 98, 2-((2-methoxy-4-(2-methyl-1H-imidazol-1-yl)phenyl)amino)-4-((2-methoxyethyl)amino)-7H-pyrrolo[2,3-d] pyrimidine-5-carbonitrile] | < 0.1 | < 0.1 | < 0.05
7 | Cn1cc(-c2ccc(Nc3nc(NC4CCOCC4)c4c(C#N)c[nH]c4n3)c3c2OCCO3)cn1 [Example 89, 2-((8-(1-methyl-1H-pyrazol-4-yl)-2,3-dihydrobenzo[b][1,4]dioxin-5-yl)amino)-4-((tetrahydro-2H-pyran-4-yl)amino)-7H-pyrrolo[2,3-d] pyrimidine-5-carbonitrile] | < 0.1 | < 0.1 | < 0.05
8 | COc1cc(-c2c(C)noc2C)ccc1Nc1nc(NC2CCOCC2)c2c(C#N)c[nH]c2n1 [Example 91] | < 0.1 | < 0.1 | < 0.05
9 | COc1cc(-c2cnn(C)c2)c(F)cc1Nc1nc(NC2CCCC2)c2c(C#N)c[nH]c2n1 [Example 125, 4-(cyclopentylamino)-2-((5-fluoro-2-methoxy-4-(1-methyl-1H-pyrazol-4-yl)phenyl)amino)-7H-pyrrolo[2,3-d] pyrimidine-5-carbonitrile] | < 0.1 | 0.1 to 1 | < 0.05
10 | Cn1nccc1-c1ccc(Nc2nc(NC3CCOCC3)c3c(C#N)c[nH]c3n2)c2c1OCCO2 [Example 40, 2-((8-(1-methyl-1H-pyrazol-5-yl)-2,3-dihydrobenzo[b][1,4]dioxin-5-yl)amino)-4-((tetrahydro-2H-pyran-4-yl)amino)-7H-pyrrolo[2,3-d] pyrimidine-5-carbonitrile] | < 0.1 | < 0.1 | < 0.05
11 | N#Cc1c[nH]c2nc(Nc3ccc(N4CCCCS4(=O)=O)cc3)nc(NC3CCOCC3)c12 [Example 164, 2-((4-(1,1-dioxido-1,2-thiazinan-2-yl)phenyl)amino)-4-((tetrahydro-2H-pyran-4-yl)amino)-7H-pyrrolo[2,3-d] pyrimidine-5-carbonitrile] | < 0.1 | < 0.1 | < 0.05
